Source: patent publication EP0908457B1, “3-(1,2-benzisothiazol- and isoxazol-5-Y1)-2,4(1H,3H)-pyrimidinedione or thione and 3-(1,2-benzisothiazol- and isoxazol-5-y1)-4(3H)-pyrimidinone or thione herbicidal agents” (BASF AKTIENGESELLSCHAFT, priority 1997, dated 1999)

Key:
[1] = tested on: Echinochloa oryzoides (Ard.) Fritsch.; test: Preemergence weed control under flooded paddy conditions, ECHORC (Watergrass (Calif.)); assay type: in vivo; conditions: flooded paddy, rated three to four weeks after treatment; note: meaning of each grade not given here
Cyperus iria = test: Preemergence weed control under flooded paddy conditions, CYPIR (Rice Flatsedge); assay type: in vivo; conditions: flooded paddy, rated three to four weeks after treatment; note: meaning of each grade not given here
[2] = tested on: Cyperus serotinus, Rottb.; test: Preemergence weed control under flooded paddy conditions, CYPSE (Flatsedge); assay type: in vivo; conditions: rated three to four weeks after treatment; note: meaning of each grade not given here
[3] = tested on: Monochoria vaginalis, Presl.; test: Preemergence weed control under flooded paddy conditions, MOOVA (Monochoria); assay type: in vivo; conditions: flooded paddy, rated three to four weeks after treatment; note: meaning of each grade not given here
Sagittaria pygmaea, L. = test: Preemergence weed control under flooded paddy conditions, SAGPY (Arrowhead (Pygmaea)); assay type: in vivo; conditions: flooded paddy, rated three to four weeks after treatment; note: meaning of each grade not given here
[4] = tested on: Oryza sativa, (L.) Tebonnet; test: Rice tolerance to post-transplant applications under flooded paddy conditions (Example 187), ORYSAT (Rice, Tebonnet); conditions: rated three to four weeks after treatment
[5] = 0.0313 kg/ha, preemergence weeds
[6] = 0.0625 kg/ha, preemergence weeds
[7] = 0.1250 kg/ha, preemergence weeds
[8] = 0.2500 kg/ha, preemergence weeds
[9] = Rate 0.0320 kg/ha, preemergence
[10] = Rate 0.0620 kg/ha, preemergence
[11] = Rate 0.1250 kg/ha, preemergence
[12] = Rate 0.2500 kg/ha, preemergence

## CCN(CC)c1nsc2ccc(-n3c(=O)cc(C(F)(F)F)n(C)c3=O)cc12 [Example 118, 3-[3-(Diethylamino)-1,2-benzisothiazol-5-yl]-1-methyl-6-(trifluoromethyl)-2,4(1H,3H)-pyrimidinedione]
[1]; [5]
  herbicidal effect rating, ECHORC: 0.0
[1]; [6]
  herbicidal effect rating, ECHORC: 0.0
[1]; [7]
  herbicidal effect rating, ECHORC: 0.0
[1]; [8]
  herbicidal effect rating, ECHORC: 0.0
Cyperus iria; [5]
  herbicidal effect rating, CYPIR: 0.0
Cyperus iria; [6]
  herbicidal effect rating, CYPIR: 0.0
Cyperus iria; [7]
  herbicidal effect rating, CYPIR: 0.0
Cyperus iria; [8]
  herbicidal effect rating, CYPIR: 0.0
[2]; [5]
  herbicidal effect rating, CYPSE: 0.0
[2]; [6]
  herbicidal effect rating, CYPSE: 0.0
[2]; [7]
  herbicidal effect rating, CYPSE: 0.0
[2]; [8]
  herbicidal effect rating, CYPSE: 0.0
[3]; [5]
  herbicidal effect rating, MOOVA: 0.0
[3]; [6]
  herbicidal effect rating, MOOVA: 0.0
[3]; [7]
  herbicidal effect rating, MOOVA: 0.0
[3]; [8]
  herbicidal effect rating, MOOVA: 0.0
Sagittaria pygmaea, L.; [5]
  herbicidal effect rating, SAGPY: 0.0
Sagittaria pygmaea, L.; [6]
  herbicidal effect rating, SAGPY: 0.0
Sagittaria pygmaea, L.; [7]
  herbicidal effect rating, SAGPY: 0.0
Sagittaria pygmaea, L.; [8]
  herbicidal effect rating, SAGPY: 0.0
[4]; 0.0313 kg/ha
  herbicidal effect rating, ORYSAT (rice tolerance): 0.0
[4]; 0.0625 kg/ha
  herbicidal effect rating, ORYSAT (rice tolerance): 0.0
[4]; 0.1250 kg/ha
  herbicidal effect rating, ORYSAT (rice tolerance): 0.0
[4]; 0.2500 kg/ha
  herbicidal effect rating, ORYSAT (rice tolerance): 0.0

## Cc1ccc(OC(C)C(=O)NS(=O)(=O)C(C)C)c(-c2nsc3ccc(-n4c(=O)cc(C(F)(F)F)n(C)c4=O)cc23)c1 (stereo not drawn) [Example 568, Propionamide, 2-{{2-{5-[3,6-dihydro-3-methyl-2,6-dioxo-4-(trifluoromethyl)-1(2H)-pyrimidinyl]-1,2-benzisothiazol-3-yl}-p-tolyl}oxy}-N-(isopropylsulfonyl)-]
[1]; [9]
  herbicidal effect rating, ECHORC: 0.0
[1]; [10]
  herbicidal effect rating, ECHORC: 3.0
[1]; [11]
  herbicidal effect rating, ECHORC: 5.0
[1]; [12]
  herbicidal effect rating, ECHORC: 6.0
Cyperus iria; [9]
  herbicidal effect rating, CYPIR: 0.0
Cyperus iria; [10]
  herbicidal effect rating, CYPIR: 0.0
Cyperus iria; [11]
  herbicidal effect rating, CYPIR: 5.0
Cyperus iria; [12]
  herbicidal effect rating, CYPIR: 7.0
[2]; [9]
  herbicidal effect rating, CYPSE: 0.0
[2]; [10]
  herbicidal effect rating, CYPSE: 0.0
[2]; [11]
  herbicidal effect rating, CYPSE: 0.0
[2]; [12]
  herbicidal effect rating, CYPSE: 0.0
[3]; [9]
  herbicidal effect rating, MOOVA: 0.0
[3]; [10]
  herbicidal effect rating, MOOVA: 9.0
[3]; [11]
  herbicidal effect rating, MOOVA: 9.0
[3]; [12]
  herbicidal effect rating, MOOVA: 9.0
Sagittaria pygmaea, L.; [9]
  herbicidal effect rating, SAGPY: 0.0
Sagittaria pygmaea, L.; [10]
  herbicidal effect rating, SAGPY: 0.0
Sagittaria pygmaea, L.; [11]
  herbicidal effect rating, SAGPY: 0.0
Sagittaria pygmaea, L.; [12]
  herbicidal effect rating, SAGPY: 0.0
[4]; Rate 0.0320 kg/ha
  herbicidal effect rating ORYSAT: 0.0
[4]; Rate 0.0620 kg/ha
  herbicidal effect rating ORYSAT: 0.0
[4]; Rate 0.1250 kg/ha
  herbicidal effect rating ORYSAT: 1.0
[4]; Rate 0.2500 kg/ha
  herbicidal effect rating ORYSAT: 3.0

## Cc1ccc(OC2CC(C)OC2=O)c(-c2nsc3ccc(-n4c(=O)cc(C(F)(F)F)n(C)c4=O)cc23)c1 (racemic) [Example 189, 1-Methyl-3-{3-{6-[(tetrahydro-5-methyl-2-oxo-3-furyl)oxy]-m-tolyl}-1,2-benzisothiazol-5-yl}-6-(trifluoromethyl)-2,4(1H,3H)-pyrimidinedione, DL-]
[1]; [5]
  herbicidal effect rating, ECHORC: 0.0
[1]; [6]
  herbicidal effect rating, ECHORC: 0.0
[1]; [7]
  herbicidal effect rating, ECHORC: 0.0
[1]; [8]
  herbicidal effect rating, ECHORC: 0.0
Cyperus iria; [5]
  herbicidal effect rating, CYPIR: 0.0
Cyperus iria; [6]
  herbicidal effect rating, CYPIR: 0.0
Cyperus iria; [7]
  herbicidal effect rating, CYPIR: 0.0
Cyperus iria; [8]
  herbicidal effect rating, CYPIR: 0.0
[2]; [5]
  herbicidal effect rating, CYPSE: 0.0
[2]; [6]
  herbicidal effect rating, CYPSE: 0.0
[2]; [7]
  herbicidal effect rating, CYPSE: 0.0
[2]; [8]
  herbicidal effect rating, CYPSE: 0.0
[3]; [5]
  herbicidal effect rating, MOOVA: 0.0
[3]; [6]
  herbicidal effect rating, MOOVA: 0.0
[3]; [7]
  herbicidal effect rating, MOOVA: 2.0
[3]; [8]
  herbicidal effect rating, MOOVA: 8.0
Sagittaria pygmaea, L.; [5]
  herbicidal effect rating, SAGPY: 0.0
Sagittaria pygmaea, L.; [6]
  herbicidal effect rating, SAGPY: 0.0
Sagittaria pygmaea, L.; [7]
  herbicidal effect rating, SAGPY: 0.0
Sagittaria pygmaea, L.; [8]
  herbicidal effect rating, SAGPY: 0.0
[4]; 0.0313 kg/ha
  herbicidal effect rating, ORYSAT (rice tolerance): 0.0
[4]; 0.0625 kg/ha
  herbicidal effect rating, ORYSAT (rice tolerance): 0.0
[4]; 0.1250 kg/ha
  herbicidal effect rating, ORYSAT (rice tolerance): 0.0
[4]; 0.2500 kg/ha
  herbicidal effect rating, ORYSAT (rice tolerance): 0.0
